Test results as given in US6797699B1, “Neuroprotective agents” (University of Southampton, priority 1997, dated 2004).

Legend:
[1] = system: CA1 pyramidal cell layer of organotypic hippocampal slice cultures; assay: Hypoxic neuronal damage in organotypic hippocampal slice cultures (propidium iodide fluorescence); format: cell-based, Wistar rat; conditions: 300 μM for 24 hours
Adult male Wistar rats = assay: Global forebrain ischaemia in vivo; parameters: species or system Wistar rat; conditions: 1 mg/kg 15 minutes prior to 15 minutes global forebrain ischaemia; assessed 24 hours after; vs vehicle
Procedure: Animals were anaesthetised as described above, and a thermistor inserted into the left temporal muscle for recording of body temperature. A dorsal midline skin incision was made in the neck and using microsurgery, the vertebral arteries were identified and occluded using a monopolar electrode at the level of C 1. The incision was closed, animals allowed to recover from anaesthesia and returned to their cages for 24 hours. After this time, animals were re-anaesthetised and the common carotid arteries (CCAs) exposed. Animals were divided into two groups. Group 1 received 0.25-0.3 ml of a 1 mg/ml solution of L-ArgSp (final dose 1 mg/kg) while group 2 received 0.25-0.3 ml of sterile distilled water. Samples were prepared independently and randomised prior to injection. Animals were injected 15 minutes prior to occlusion of the CCAs with microvascular clips for 15 minutes. After this time, the skin was closed, and animals allowed to recover. After 24 hours animals were terminally anaesthetised and transcardially perfused with 1% paraformaldehyde and the brains removed and processed for histology. A blinded observer determined the number of live and dead neurones in the CA1, CA3 fields of the pyramidal cell layer, and the dentate gyrus granule cell layer from haematoxylin and eosin stained coronal sections.

[2] = system: anaesthetised male Wistar rats; assay: Blood flow studies (mean arterial blood pressure after intravenous injection); format: in vivo, Wistar rat; conditions: for MABP (mmHg): pre-injection 79.9 ± 3.9, four observations
Procedure: Adult male Wistar rats (250-300 g) were initially anesthetized with 4% halothane and subsequently anaesthesia was maintained with 1.5% halothane mixed in […] in O2. The femoral artery was cannulated for continuous blood pressure recording. The femoral vein was also cannulated to allow injection of the compound. Animals were allowed 15-30 minutes to stabilise and were then injected with 0.25-0.3 ml of a 1 mg/ml solution of L-ArgSp. Following injection of the compound, rats were continuously monitored for 60 minutes. After this time, anaesthesia was terminated and rats allowed to waken. In these studies, measurement was taken of the mean arterial blood pressure (MABP) induced following an intravenous injection of 1 mg/kg L-ArgSp into the femoral vein of anaesthetised male Wistar rats. MABP was calculated immediately prior to injection of L-ArgSp (pre-injection) and 30 seconds and 10 minutes post-injection. Data are presented as mean […] of four observations.

[3] = system: NMDA receptor-mediated neurotoxicity in organotypic hippocampal slice cultures; assay: NMDA receptor-mediated neurotoxicity in organotypic hippocampal slice cultures; format: cell-based, Wistar rat; conditions: 300 μM throughout the experiment, PI at 24 hours
Procedure: Organotypic hippocampal slice cultures were prepared and maintained as described above. NMDA was prepared as a 50 mM stock solution in distilled water, and diluted as required in SF medium. Neurotoxicity was induced by placing cultures in SF medium containing either 10 μM or […] NMDA for 180 minutes. After this time, cultures were replated in SF-medium and maintained for 24 hours in the incubator. Either 300 μM L-ArgSp or vehicle (SF medium) was added to the culture medium pre-, during and post-NMDA exposure. Throughout the duration of the experiment, 5 μg/ml PI was included in the medium. After 24 hours, neuronal damage was determined by PI fluorescence imaging and quantified as described previously.

Compound: N=C(N)NCCCC(N)C(=O)NCCCNCCCCN [Compound A, N′-L-Arginylspermidine]
- PI fluorescence above baseline after incubation without hypoxia [1]: no increase in PI fluorescence above baseline was observed
- neuronal loss in CA1, CA3 and dentate gyrus (in words) (Adult male Wistar rats): neuronal loss was significantly attenuated
- effect on body temperature ([2]; 1 mg/kg intravenous): No effect
- effect on heart rate ([2]; 1 mg/kg intravenous): No effect
- ill effects on the animals following wakening ([2]; 1 mg/kg intravenous): no ill effects
- reduction in MABP (significance, in words) ([2]; 1 mg/kg intravenous): not statistically significant
- % Charge ([2]; 1 mg/kg intravenous, 30 secs post-injection vs pre-injection): −9.6%
- MABP (mmHg) ([2]; 1 mg/kg intravenous, 30 secs post-injection): 72.2 ± 5.1 mmHg
- % Charge ([2]; 1 mg/kg intravenous, 10 minutes post-injection vs pre-injection): −0.9%
- MABP (mmHg) ([2]; 1 mg/kg intravenous, 10 minutes post-injection): 79.2 ± 6.5 mmHg
- blood pressure recordings (in words) ([2]; 1 mg/kg intravenous, 60 minutes after injection): identical to those 10 minutes post-drug administration
- long-term behavioural deficits ([2]; 1 mg/kg, five rats recovered for three days): no long-term behavioural deficits have been observed
- effect on blood flow compared with FTX (in words) ([2]; rat, in vivo): less adverse effect on blood flow than FTX
- damage produced by NMDA (PI fluorescence, in words) ([3]; 10 μM NMDA for 180 minutes): did not reduce the damage
- damage produced by NMDA (PI fluorescence, in words) ([3]; 30 μM NMDA for 180 minutes): did not reduce the damage
